Experimental data taken from US20100267561A1, “HERBICIDAL PYRIDAZINONE DERIVATIVES” (priority 2007, published 2010).
Read-outs that look alike come from different tables or passages of the source.

Experiments:
Format in all cases: in vivo
[1] = tested on: winter wheat (Triticum aestivum); experiment: Test C pre-/postemergence plant response
Outline: (§1)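 Greenhouse-type test under controlled conditions: soil-surface preemergence treatment of sown seed and foliar postemergence treatment of seedlings 2–18 cm tall. Each compound was in non-phytotoxic solvent with surfactant. Response was rated by eye after 15–25 days, 0 to 100, against controls.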

[2] = tested on: green foxtail (Setaria viridis); experiment: Test C pre-/postemergence plant response
Outline: as §1

[3] = tested on: pigweed (Amaranthus retroflexus); experiment: Test C pre-/postemergence plant response
Outline: as §1

[4] = tested on: downy bromegrass (Bromus tectorum); experiment: Test C pre-/postemergence plant response
Outline: as §1

[5] = tested on: annual bluegrass (Poa annua); experiment: Test C pre-/postemergence plant response
Outline: as §1

[6] = tested on: wild oat (Avena fatua); experiment: Test C pre-/postemergence plant response
Outline: as §1

[7] = tested on: spring barley (Hordeum vulgare); experiment: Test C pre-/postemergence plant response
Outline: as §1

[8] = tested on: canarygrass (Phalaris minor); experiment: Test C pre-/postemergence plant response
Outline: as §1

[9] = tested on: wild mustard (Sinapis arvensis); experiment: Test C pre-/postemergence plant response
Outline: as §1

[10] = tested on: blackgrass (Alopecurus myosuroides); experiment: Test C pre-/postemergence plant response
Outline: as §1

[11] = tested on: Italian ryegrass (Lolium multiflorum); experiment: Test C pre-/postemergence plant response
Outline: as §1

[12] = tested on: woolly cupgrass (Eriochloa villosa); experiment: Test B pre-/postemergence plant response; settings: for Cupgrass, Woolly plant response rating: 8 g ai/ha; for pest or weed control at 16 g/ha / pest or weed control at 31 g/ha / pest or weed control at 62 g/ha: Eriochloa villosa, read-out: Plant response rating, Cupgrass, Woolly; for pest or weed control at 16 g/ha: 16 g ai/ha; for pest or weed control at 31 g/ha: 31 g ai/ha; for pest or weed control at 62 g/ha: 62 g ai/ha
Outline: (§2)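 Preemergence and postemergence (plants 2-18 cm, 1- to 4-leaf stage) applications used test chemicals in a non-phytotoxic solvent with surfactant. Plants were held in a greenhouse 13 to 15 days, then rated visually against controls on a 0-100 scale (0 no effect, 100 complete control).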

[13] = tested on: large crabgrass (Digitaria sanguinalis); experiment: Test B pre-/postemergence plant response; settings: for Crabgrass, Large plant response rating: 8 g ai/ha; for pest or weed control at 16 g/ha / pest or weed control at 31 g/ha / pest or weed control at 62 g/ha: Digitaria sanguinalis, read-out: Plant response rating, Crabgrass, Large; for pest or weed control at 16 g/ha: 16 g ai/ha; for pest or weed control at 31 g/ha: 31 g ai/ha; for pest or weed control at 62 g/ha: 62 g ai/ha
Outline: as §2

[14] = Postemergence, 8 g ai/ha, scale 0 to 100, 0 no effect, 100 complete control
[15] = Postemergence, 16 g ai/ha, scale 0 to 100, 0 no effect, 100 complete control
[16] = Postemergence, 31 g ai/ha, scale 0 to 100, 0 no effect, 100 complete control
[17] = Postemergence, 62 g ai/ha, scale 0 to 100, 0 no effect, 100 complete control
[18] = Preemergence, 8 g ai/ha, scale 0 to 100 (0 no effect, 100 complete control)
[19] = Preemergence, 16 g ai/ha, scale 0 to 100 (0 no effect, 100 complete control)
[20] = Preemergence, 31 g ai/ha, scale 0 to 100 (0 no effect, 100 complete control)
[21] = Preemergence, 62 g ai/ha, scale 0 to 100, 0 no effect, 100 complete control
[22] = post-emergence, Postemergence, scale 0 to 100
[23] = post-emergence, Postemergence, scale 0 to 100, 0 no effect, 100 complete control
[24] = pre-emergence, Preemergence, scale 0 to 100 (0 no effect, 100 complete control)
[25] = pre-emergence, Preemergence, 0 to 100 scale, 0 no effect, 100 complete control
[26] = pre-emergence, Preemergence, scale 0 to 100

CCc1c(C)c(-c2ccc(Cl)cc2)nn1-c1c(O)cnn(C)c1=O [Compound 26, 4-[3-(4-chlorophenyl)-5-ethyl-4-methyl-1H-pyrazol-1-yl]-5-hydroxy-2-methyl-3(2H)-pyridazinone]
Plant response rating, Wheat, Winter [1, 14]: 0
Plant response rating, Wheat, Winter [1, 15]: 0
Plant response rating, Wheat, Winter [1, 16]: 30
Plant response rating, Wheat, Winter [1, 17]: 35
Plant response rating, Wheat, Winter [1, 18]: 0
Plant response rating, Wheat, Winter [1, 19]: 0
Plant response rating, Wheat, Winter [1, 20]: 0
Plant response rating, Wheat, Winter [1, 21]: 25
Plant response rating, Foxtail, Green [2, 14]: 90
Plant response rating, Foxtail, Green [2, 15]: 95
Plant response rating, Foxtail, Green [2, 16]: 95
Plant response rating, Foxtail, Green [2, 17]: 98
Plant response rating, Foxtail, Green [2, 18]: 0
Plant response rating, Foxtail, Green [2, 19]: 0
Plant response rating, Foxtail, Green [2, 20]: 75
Plant response rating, Foxtail, Green [2, 21]: 100
Plant response rating, Pigweed [3, 14]: 0
Plant response rating, Pigweed [3, 15]: 0
Plant response rating, Pigweed [3, 16]: 0
Plant response rating, Pigweed [3, 17]: 20
Plant response rating, Pigweed [3, 18]: 0
Plant response rating, Pigweed [3, 19]: 0
Plant response rating, Pigweed [3, 20]: 0
Plant response rating, Pigweed [3, 21]: 20
Plant response rating, Bromegrass, Downy [4, 14]: 0
Plant response rating, Bromegrass, Downy [4, 15]: 0
Plant response rating, Bromegrass, Downy [4, 16]: 0
Plant response rating, Bromegrass, Downy [4, 17]: 0
Plant response rating, Bromegrass, Downy [4, 18]: 0
Plant response rating, Bromegrass, Downy [4, 19]: 0
Plant response rating, Bromegrass, Downy [4, 20]: 0
Plant response rating, Bromegrass, Downy [4, 21]: 20
Plant response rating, Bluegrass [5, 14]: 0
Plant response rating, Bluegrass [5, 15]: 0
Plant response rating, Bluegrass [5, 16]: 0
Plant response rating, Bluegrass [5, 17]: 15
Plant response rating, Bluegrass [5, 18]: 0
Plant response rating, Bluegrass [5, 19]: 0
Plant response rating, Bluegrass [5, 20]: 0
Plant response rating, Bluegrass [5, 21]: 0
Plant response rating, Oat, Wild [6, 14]: 70
Plant response rating, Oat, Wild [6, 15]: 98
Plant response rating, Oat, Wild [6, 16]: 98
Plant response rating, Oat, Wild [6, 17]: 100
Plant response rating, Oat, Wild [6, 18]: 0
Plant response rating, Oat, Wild [6, 19]: 15
Plant response rating, Oat, Wild [6, 20]: 65
Plant response rating, Oat, Wild [6, 21]: 75
Plant response rating, Barley, Spring [7, 14]: 0
Plant response rating, Barley, Spring [7, 15]: 0
Plant response rating, Barley, Spring [7, 16]: 35
Plant response rating, Barley, Spring [7, 17]: 50
Plant response rating, Barley, Spring [7, 18]: 0
Plant response rating, Barley, Spring [7, 19]: 0
Plant response rating, Barley, Spring [7, 20]: 25
Plant response rating, Barley, Spring [7, 21]: 35
Plant response rating, Canarygrass [8, 14]: 25
Plant response rating, Canarygrass [8, 15]: 75
Plant response rating, Canarygrass [8, 16]: 75
Plant response rating, Canarygrass [8, 17]: 100
Plant response rating, Canarygrass [8, 18]: 0
Plant response rating, Canarygrass [8, 19]: 0
Plant response rating, Canarygrass [8, 20]: 65
Plant response rating, Canarygrass [8, 21]: 70
Plant response rating, Mustard, Wild [9, 14]: 0
Plant response rating, Mustard, Wild [9, 15]: 0
Plant response rating, Mustard, Wild [9, 18]: 0
Plant response rating, Mustard, Wild [9, 19]: 0
Plant response rating, Mustard, Wild [9, 20]: 0
Plant response rating, Mustard, Wild [9, 21]: 0
Plant response rating, Blackgrass [10, 14]: 50
Plant response rating, Blackgrass [10, 15]: 50
Plant response rating, Blackgrass [10, 16]: 70
Plant response rating, Blackgrass [10, 17]: 95
Plant response rating, Blackgrass [10, 18]: 20
Plant response rating, Blackgrass [10, 19]: 50
Plant response rating, Blackgrass [10, 21]: 75
Plant response rating, Ryegrass, Italian [11, 14]: 70
Plant response rating, Ryegrass, Italian [11, 15]: 85
Plant response rating, Ryegrass, Italian [11, 16]: 95
Plant response rating, Ryegrass, Italian [11, 17]: 100
Plant response rating, Ryegrass, Italian [11, 18]: 15
Plant response rating, Ryegrass, Italian [11, 19]: 75
Plant response rating, Ryegrass, Italian [11, 20]: 100
Plant response rating, Ryegrass, Italian [11, 21]: 100
Cupgrass, Woolly plant response rating ([12]; postemergence, 0-100 scale): 85
pest or weed control at 16 g/ha [12, 22]: 95%
pest or weed control at 31 g/ha [12, 23]: 98%
pest or weed control at 62 g/ha [12, 23]: 98%
pest or weed control at 16 g/ha [12, 24]: 70%
pest or weed control at 31 g/ha [12, 25]: 85%
pest or weed control at 62 g/ha [12, 26]: 100%
Cupgrass, Woolly plant response rating ([12]; Preemergence, scale 0 to 100): 20
Crabgrass, Large plant response rating ([13]; postemergence, 0-100 scale): 45
pest or weed control at 16 g/ha [13, 22]: 60%
pest or weed control at 31 g/ha [13, 23]: 80%
pest or weed control at 62 g/ha [13, 23]: 80%
pest or weed control at 16 g/ha [13, 24]: 65%
pest or weed control at 31 g/ha [13, 25]: 70%
pest or weed control at 62 g/ha [13, 26]: 95%
Crabgrass, Large plant response rating ([13]; Preemergence, scale 0 to 100): 0
